Results published in the supplement of paper PMC10307832.

Tests used:
Test in all cases: relative viability (nuclei count vs DMSO), 5 days (fraction); higher = more cells survive
Lapatinib + Linsitinib = compound: CS(=O)(=O)CCNCc1ccc(-c2ccc3ncnc(Nc4ccc(OCc5cccc(F)c5)c(Cl)c4)c3c2)o1 [Lapatinib] + C[C@]1(O)C[C@@H](c2nc(-c3ccc4ccc(-c5ccccc5)nc4c3)c3c(N)nccn32)C1 [Linsitinib] (partner 1 µM)
Procedure, shortened: (§1)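 Five library-drug doses in √10 steps were combined with a fixed anchor-drug dose, or a single drug was given alone, by pin tool to lung cancer cell lines in 1536-well plates the day after seeding. Nuclei were stained and counted after 5 days. Relative viability is the nuclei count in treated wells over that in vehicle wells, taken as the median of duplicate plates.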

Lapatinib + Palbociclib = compound: CS(=O)(=O)CCNCc1ccc(-c2ccc3ncnc(Nc4ccc(OCc5cccc(F)c5)c(Cl)c4)c3c2)o1 [Lapatinib] + CC(=O)c1c(C)c2cnc(Nc3ccc(N4CCNCC4)cn3)nc2n(C2CCCC2)c1=O [Palbociclib] (partner 0.5 µM)
Procedure, shortened: as §1

Wnt-C59 + AZD7762 = compound: CC1=NC=CC(=C1)C2=CC=C(C=C2)CC(=O)NC3=CC=C(C=C3)C4=CN=CC=C4 [Wnt-C59] + NC(=O)Nc1cc(-c2cccc(F)c2)sc1C(=O)N[C@H]1CCCNC1 [AZD7762] (partner 0.2 µM)
Procedure, shortened: as §1

Wnt-C59 + Trametinib = compound: CC1=NC=CC(=C1)C2=CC=C(C=C2)CC(=O)NC3=CC=C(C=C3)C4=CN=CC=C4 [Wnt-C59] + CC(=O)Nc1cccc(-n2c(=O)n(C3CC3)c(=O)c3c(Nc4ccc(I)cc4F)n(C)c(=O)c(C)c32)c1 [Trametinib] (partner 0.02 µM)
Procedure, shortened: as §1

Row | Cell Line | relative viability (Lapatinib + Linsitinib; first compound 0.6325 µM) | relative viability (Lapatinib + Linsitinib; first compound 2 µM) | relative viability (Lapatinib + Palbociclib; first compound 0.06325 µM) | relative viability (Lapatinib + Palbociclib; first compound 0.2 µM) | relative viability (Lapatinib + Palbociclib; first compound 0.6325 µM) | relative viability (Lapatinib + Palbociclib; first compound 2 µM) | relative viability (Wnt-C59 + AZD7762; first compound 0.001 µM) | relative viability (Wnt-C59 + AZD7762; first compound 0.01 µM) | relative viability (Wnt-C59 + AZD7762; first compound 0.03162 µM) | relative viability (Wnt-C59 + AZD7762; first compound 0.1 µM) | relative viability (Wnt-C59 + Trametinib; first compound 0.001 µM) | relative viability (Wnt-C59 + Trametinib; first compound 0.01 µM) | relative viability (Wnt-C59 + Trametinib; first compound 0.03162 µM) | relative viability (Wnt-C59 + Trametinib; first compound 0.1 µM) | relative viability (Lapatinib + Linsitinib; first compound 0.06325 µM) | relative viability (Lapatinib + Linsitinib; first compound 0.2 µM) | relative viability (Lapatinib + Linsitinib; first compound 0.02 µM) | relative viability (Lapatinib + Palbociclib; first compound 0.02 µM)
1 | NCI-H1793 | 0.605 | 0.515 | 0.25 | 0.258 | 0.293 | 0.241 | 0.467 | 0.408 | 0.536 | 0.532 | 0.495 | 0.408 | 0.385 | 0.425 |  |  |  | 
2 | HCC-15 | 0.814 | 0.599 | 0.68 | 0.734 | 0.652 | 0.584 | 1.28 | 1.34 | 1.29 | 1.06 | 0.417 | 0.371 | 0.404 | 0.359 | 0.857 | 0.954 |  | 
3 | NCI-H1792 | 0.533 | 0.431 |  | 0.614 | 0.559 | 0.6 | 0.659 | 0.676 | 0.701 | 0.854 | 0.395 | 0.348 | 0.526 | 0.352 | 0.455 | 0.532 | 0.456 | 0.618
4 | HARA | 0.755 | 0.243 | 0.195 | 0.202 | 0.233 | 0.224 | 0.408 | 0.348 | 0.38 | 1.61 | 0.785 | 0.691 | 0.933 | 0.879 | 0.686 | 0.808 | 0.782 | 0.194
5 | EKVX | 0.579 | 0.179 | 0.337 | 0.265 | 0.22 | 0.145 | 0.871 |  | 0.689 | 0.651 | 0.366 |  | 0.324 | 0.319 | 0.757 | 0.956 | 0.922 | 
6 | HCC-78 | 0.441 | 0.448 | 0.453 | 0.49 | 0.467 | 0.506 | 0.59 | 0.653 | 0.688 | 0.624 | 0.691 | 0.746 | 0.908 | 0.854 | 0.383 | 0.461 |  | 
7 | NCI-H1395 | 1.03 | 1.01 | 0.621 | 0.581 | 0.598 | 0.616 | 0.39 | 0.383 | 0.426 | 0.389 | 0.931 | 0.995 | 1.04 | 1.02 | 1.01 | 1.03 |  | 
8 | BEN | 0.769 | 0.8 | 0.469 | 0.472 | 0.432 | 0.468 | 0.823 | 0.623 | 0.761 | 0.856 | 1.13 | 0.995 | 1 | 1.04 | 0.858 | 0.878 | 0.91 | 0.455
9 | LCLC-103H | 0.955 | 1.08 | 0.486 | 0.478 | 0.533 | 0.441 | 0.798 | 0.712 | 0.824 | 0.775 | 0.716 | 0.667 | 0.667 | 0.713 | 0.978 | 0.998 |  | 0.445
10 | NCI-H1734 | 0.858 | 0.745 | 0.271 | 0.31 | 0.332 | 0.303 | 0.589 | 0.517 | 0.641 | 0.543 | 0.675 | 0.744 | 0.77 | 0.632 | 0.729 | 0.946 |  | 
